Reference: patent US10477864B2, “Microbiocidal quinoline (thio)carboxamide derivatives” (priority 2016, dated 2019)

Legend:
[1] = system: Botryotinia fuckeliana (Botrytis cinerea); test: Botryotinia fuckeliana (Botrytis cinerea) / liquid culture (gray mould); type: cell-based; settings: 72 h, read-out: control of Botryotinia fuckeliana
Fusarium culmorum [2] = test: whole plant or invertebrate; type: in vivo; settings: in Triticum aestivum, read-out: control of Fusarium culmorum
Fusarium culmorum [3] = test: microbe, parasite or virus in culture; type: cell-based; settings: read-out: control of Fusarium culmorum
[4] = system: Glomerella lagenarium (Colletotrichum lagenarium); test: Glomerella lagenarium (Colletotrichum lagenarium) / liquid culture (anthracnose); type: cell-based; settings: Colletotrichum orbiculare; read-out: control of Glomerella lagenarium

`Cc1ccc2ncc(C(=O)NC(C)(Cc3ccccc3)CC(F)(F)F)cc2c1` (stereo not shown) [Compound E-77, N-(1-benzyl-3,3,3-trifluoro-1-methyl-propyl)-6-methyl-quinoline-3-carboxamide] was tested, and the inhibition of growth at 200 ppm [1] was ≥ 80%, the pest or weed control at 200 ppm (Fusarium culmorum [2]) was ≥ 80% and the inhibition of growth at 200 ppm (Fusarium culmorum [3]) was ≥ 80%.

`CC(C)CC(C)(Cc1ccccc1)NC(=O)c1cnc2ccc(F)cc2c1` (stereo not shown) [Compound E-73, N-(1-benzyl-1,3-dimethyl-butyl)-6-fluoro-quinoline-3-carboxamide] was tested, and the inhibition of growth at 200 ppm [1] was ≥ 80% and the inhibition of growth at 200 ppm (Fusarium culmorum [3]) was ≥ 80%.

`CC(C)CC(C)(Cc1ccccc1)NC(=O)c1cnc2cccc(F)c2c1` (stereo not shown) [Compound E-74, N-(1-benzyl-1,3-dimethyl-butyl)-5-fluoro-quinoline-3-carboxamide] was tested, and the inhibition of growth at 200 ppm [1] was ≥ 80%, the pest or weed control at 200 ppm (Fusarium culmorum [2]) was ≥ 80% and the inhibition of growth at 200 ppm (Fusarium culmorum [3]) was ≥ 80%.

`CC(C)CC(C)(Cc1ccccc1)NC(=O)c1cc2ccccc2[n+]([O-])c1` (stereo not shown) [Compound E-41, N-(1-benzyl-1,3-dimethyl-butyl)-1-oxido-quinolin-1-ium-3-carboxamide] was tested, and the inhibition of growth at 200 ppm [1] was ≥ 80% and the inhibition of growth at 200 ppm (Fusarium culmorum [3]) was ≥ 80%.

In the case of `Cc1nc2c(F)cccc2cc1C(=O)N[C@](C)(Cc1ccccc1)CC(F)(F)F` [Compound F-34, N-[(1R)-1-benzyl-3,3,3-trifluoro-1-methyl-propyl]-8-fluoro-2-methyl-quinoline-3-carboxamide], the inhibition of growth at 200 ppm [4] is reported as ≥ 80%, the inhibition of growth at 200 ppm [1] is reported as ≥ 80% and the inhibition of growth at 200 ppm (Fusarium culmorum [3]) is reported as ≥ 80%.

`Cc1c(C(=O)NC(C)(Cc2ccccc2)CC(C)C)cnc2c(C#N)cccc12` (stereo not shown) [Compound E-109, N-(1-benzyl-1,3-dimethyl-butyl)-8-cyano-4-methyl-quinoline-3-carboxamide] was tested, and the inhibition of growth at 200 ppm [1] was ≥ 80%, the pest or weed control at 200 ppm (Fusarium culmorum [2]) was ≥ 80% and the inhibition of growth at 200 ppm (Fusarium culmorum [3]) was ≥ 80%.

With `CC(Cc1ccccc1)(CC(F)(F)F)NC(=O)c1cnc2ccc(O)cc2c1` (stereo not shown) [Compound E-82, N-(1-benzyl-3,3,3-trifluoro-1-methyl-propyl)-6-hydroxy-quinoline-3-carboxamide] the inhibition of growth at 200 ppm [1] was ≥ 80%, the pest or weed control at 200 ppm (Fusarium culmorum [2]) was ≥ 80% and the inhibition of growth at 200 ppm (Fusarium culmorum [3]) was ≥ 80%.

`Cc1ccc2ncc(C(=O)NC(C)(Cc3ccccc3)CC(C)C)cc2c1` (stereo not shown) [Compound E-71, N-(1-benzyl-1,3-dimethyl-butyl)-6-methyl-quinoline-3-carboxamide] was tested, and the inhibition of growth at 200 ppm [1] was ≥ 80%, the pest or weed control at 200 ppm (Fusarium culmorum [2]) was ≥ 80% and the inhibition of growth at 200 ppm (Fusarium culmorum [3]) was ≥ 80%.

With `CC(C)CC(C)(Cc1ccccc1)NC(=O)c1cnc2ccc(O)cc2c1` (stereo not shown) [Compound E-76, N-(1-benzyl-1,3-dimethyl-butyl)-6-hydroxy-quinoline-3-carboxamide] the inhibition of growth at 200 ppm [1] was ≥ 80%, the pest or weed control at 200 ppm (Fusarium culmorum [2]) was ≥ 80% and the inhibition of growth at 200 ppm (Fusarium culmorum [3]) was ≥ 80%.

In the case of `C=C(C)CC(C)(Cc1ccccc1)NC(=O)c1cc2cccc(F)c2nc1C` (stereo not shown) [Compound E-124, N-(1-benzyl-1,3-dimethyl-but-3-enyl)-8-fluoro-2-methyl-quinoline-3-carboxamide], the inhibition of growth at 200 ppm [1] is reported as ≥ 80% and the inhibition of growth at 200 ppm (Fusarium culmorum [3]) is reported as ≥ 80%.

In the case of `CC(C=O)(Cc1ccccc1)NC(=O)c1cnc2c(F)cccc2c1` (stereo not shown) [Compound E-120, N-(1-benzyl-1-methyl-2-oxo-ethyl)-8-fluoro-quinoline-3-carboxamide], the inhibition of growth at 200 ppm (Fusarium culmorum [3]) is reported as ≥ 80%.

For `CC(Cc1ccccc1)(CC(F)(F)F)NC(=O)c1cnc2ccc(Cl)cc2c1` (stereo not shown) [Compound E-78, N-(1-benzyl-3,3,3-trifluoro-1-methyl-propyl)-6-chloro-quinoline-3-carboxamide], the inhibition of growth at 200 ppm (Fusarium culmorum [3]) was ≥ 80%.

For `CC(C)C[C@@](C)(Cc1ccccc1)NC(=O)c1cnc2c(F)c(F)ccc2c1` [Compound F-22, N-[(1S)-1-benzyl-1,3-dimethyl-butyl]-7,8-difluoro-quinoline-3-carboxamide], the inhibition of growth at 200 ppm [4] was ≥ 80%, the inhibition of growth at 200 ppm [1] was ≥ 80% and the inhibition of growth at 200 ppm (Fusarium culmorum [3]) was ≥ 80%.

`CC(CCO)(Cc1ccccc1)NC(=O)c1cnc2c(F)cccc2c1` (stereo not shown) [Compound E-119, N-(1-benzyl-3-hydroxy-1-methyl-propyl)-8-fluoro-quinoline-3-carboxamide] was tested, and the inhibition of growth at 200 ppm [1] was ≥ 80% and the inhibition of growth at 200 ppm (Fusarium culmorum [3]) was ≥ 80%.
